Measurements: patent US20230000869A1, “NOVEL ALK2 INHIBITORS AND METHODS FOR INHIBITING BMP SIGNALING” (The Brigham and Women's Hospital, Inc., priority 2017, published 2023)

Molecular target: T1, Aldehyde Oxidase (AO) (Homo sapiens, UniProt Q06278)
T1 construct: tissue Frontage Laboratories (performed the study); host or cells: human liver cytosol (HLC), 2 mg/ml
T1 sequence (Q06278 1-1338): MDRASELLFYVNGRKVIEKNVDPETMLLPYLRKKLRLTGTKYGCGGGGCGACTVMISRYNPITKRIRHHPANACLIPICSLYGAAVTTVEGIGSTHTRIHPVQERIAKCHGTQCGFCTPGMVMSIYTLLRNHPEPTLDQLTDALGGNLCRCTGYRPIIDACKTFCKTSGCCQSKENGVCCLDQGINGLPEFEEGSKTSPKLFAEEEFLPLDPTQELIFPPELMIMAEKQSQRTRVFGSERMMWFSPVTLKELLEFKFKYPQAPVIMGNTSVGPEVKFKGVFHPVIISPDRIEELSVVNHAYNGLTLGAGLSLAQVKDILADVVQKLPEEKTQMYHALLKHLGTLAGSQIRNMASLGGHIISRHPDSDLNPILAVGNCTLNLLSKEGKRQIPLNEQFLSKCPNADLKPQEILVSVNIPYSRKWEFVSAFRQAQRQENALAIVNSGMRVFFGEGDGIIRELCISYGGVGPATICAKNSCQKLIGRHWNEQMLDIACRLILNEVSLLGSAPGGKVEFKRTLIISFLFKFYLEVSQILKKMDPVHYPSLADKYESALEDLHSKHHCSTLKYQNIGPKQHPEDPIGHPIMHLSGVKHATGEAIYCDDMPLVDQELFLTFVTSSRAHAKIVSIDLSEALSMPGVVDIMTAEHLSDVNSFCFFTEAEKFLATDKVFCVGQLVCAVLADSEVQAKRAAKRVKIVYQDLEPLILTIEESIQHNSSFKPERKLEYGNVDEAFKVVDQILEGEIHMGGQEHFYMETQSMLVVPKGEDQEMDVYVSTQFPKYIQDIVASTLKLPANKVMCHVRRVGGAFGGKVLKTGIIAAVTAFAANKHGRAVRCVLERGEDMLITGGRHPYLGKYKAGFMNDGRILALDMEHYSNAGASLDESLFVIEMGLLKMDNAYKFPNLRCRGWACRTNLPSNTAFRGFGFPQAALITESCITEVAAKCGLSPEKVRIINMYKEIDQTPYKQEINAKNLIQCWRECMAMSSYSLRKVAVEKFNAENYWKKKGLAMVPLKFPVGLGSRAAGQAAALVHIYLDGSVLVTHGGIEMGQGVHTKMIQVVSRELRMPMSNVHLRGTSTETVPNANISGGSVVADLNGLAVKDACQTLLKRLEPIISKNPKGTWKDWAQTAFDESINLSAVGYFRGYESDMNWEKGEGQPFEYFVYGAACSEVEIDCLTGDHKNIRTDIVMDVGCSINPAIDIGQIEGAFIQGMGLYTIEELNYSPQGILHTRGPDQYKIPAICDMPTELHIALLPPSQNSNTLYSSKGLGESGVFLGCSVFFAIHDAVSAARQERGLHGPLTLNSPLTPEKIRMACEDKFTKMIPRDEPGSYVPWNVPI
Experiment: Aldehyde oxidase (AO) oxidation study, metabolic stability in human liver cytosol
Assay type: in vitro ADME
Conditions: human liver cytosol 2 mg/ml, 1 μM substrate, 37° C.
Method: Experimental Procedure for Aldehyde Oxidase (AO) Oxidation Study (Frontage Laboratories (700 Pennsylvania Dr. Exton, Pa. 19341)
Determination of the of metabolic stability in human liver cytosol (HLC) and the identification of corresponding metabolites was done by incubating substrates (1 μM final concentration for metabolic stability or 10 μM final concentration for metabolite ID) with HLC (2 mg/ml, final concentration) in 100 mM potassium phosphate at pH 7.4. The reaction was initiated by adding HLC without preincubation. The mixture was then incubated at 37° C. for 1 h and samples were taken at 0, 30 and 60 min for analysis. The reaction was terminated by adding acetonitrile (ACN) (3×) followed by vortexing for 1 min then centrifuged. For the metabolic stability study, aliquotes of the supernatants were transferred to clean tubes and directly used for LC/MS/MS analysis. For the identification of metabolites, aliquots of supernatants were transferred to clean tubes and dried under a stream of N2. The residue was reconstituted in 30/70 (v/v) acetonitrile/water solution and injected onto LC/UV/MS system.
The instrument and method for the metabolic stability are as following: LC/MS/MS system: Agilent 1100 HPLC interfaced to Sciex API4000 mass spectrometer (ESI); HPLC column: ACE 3 C18-PFP, 50×2.1 mm, 5 μm. […]

Compound: c1ccc2c(-c3cnn4cc(-c5ccc(N6CCNCC6)cc5)cnc34)ccnc2c1 [TRND00262637-13]
- 30 minutes (%) (pH 7.4, sample at 30 min): 0.06%
- 60 minutes (%) (pH 7.4, sample at 60 min): 0.02%
